Values quoted from earlier work, collected in patent US20040101542A1, “Skin care composition with retinyl ester as vitamin a propionate retinyl palmitate d-alpha tocopherol rice amino acids and liposomes and method of application” (priority 2003, published 2004).

Settings: at 24 hours

uptake and distribution in the deeper skin strata, liposomal formulations versus solutions or emulsions: 3-4 times higher
Compound: CC1=C(/C=C/C(C)=C/C=C/C(C)=C/C(=O)O)C(C)(C)CCC1 [retinoic acid]
